Measured values: US20210052561A1, “TARGETING ASPARTATE BETA-HYDROXYLASE SUPPRESSES TUMOR MALIGNANCY AND METASTASIS” (Rhode Island Hospital, priority 2019, published 2021)
“Also recorded” adds a separate entry of the source. Read-outs that look alike come from different tables or passages of the source.

Key:
[1] = test system: MMP14; test: immunohistochemistry of primary intrahepatic tumor, MMP14; type: in vivo; conditions: rat, 10 mg/kg oral daily
Method: (§1) The immunohistochemistry assay was performed as known in the art. Tissue slides were de-paraffined, re-hydrated, and then subjected to antigen-retrieval using the antigen unmasking solution (Vector Inc., H3300). The endogenous peroxidase activity was quenched with 3% H2O2 prepared in methanol. Tissues slides were further blocked with a 5% milk and BSA solution prepared in 1×PBST for 1 hour. The slides were incubated with ASPH, MMP2, and MMP14 antibodies prepared in with 3% BSA in PBS) overnight at 4° C. overnight. The slides were washed with 0.05% TBST three times and then incubated with 1:200 dilution of biotinylated secondary antibody (Vector Laboratories) and the ABC solution (Vector Laboratories) at 20° C. The slides were incubated with DAB substrate to detect positive staining. […] Images were taken using a Nikon microscope and analyzed with Image Pro Plus.
(§2) To evaluate whether compound 14c suppresses CCA metastasis in vivo, we performed experiments in a rat intrahepatic syngeneic CCA model by ligating the bile duct and inoculating rat BDE-neu-CL24 cells into the liver. We first determined that compound 14c inhibited BDE-neu-CL24 cells in vitro (FIG. 4A). […] The body weights were measured as a gross indicator of drug toxicity and were not affected compared to vehicle control (FIG. 7). The metastatic spread to the lung surface was determined (FIG. 4D).

[2] = body weights of experimental rats as gross indicator of drug toxicity; type: in vivo; conditions: rat, compound 14c 10 mg/kg, measured at the indicated experimental time points, n=8-10
Method: There was no difference between the control and experimental groups.
The intrahepatic CCA metastatic models weremetastasis model was established with BDE-Neu-CL24 cells. Rats were anesthetized with isoflurane, the abdomen was opened, and the liver inoculated with 3×10^6 BDE-Neu-CL24 cells. The bile duct was then ligated following administration of 0.03 mg/kg of buprenorphine prior to surgery, and four hours after surgery, and the following morning for analgesia as needed. The rats were monitored daily and evaluated for weight change, body condition, and signs of ascites. The oral formulated compound 14c were prepared in capsules at a dose of 10 mg/kg and administered with an oral syringe. […] All lung tissues were immersed in Bouin's fixative solution and the metastatic nodules on the surface of the lungs were counted.
as §2

[3] = test system: HuCCT1 CCA cells; test: cell invasion assay, matrix-coated Boyden chamber transwell, HuCCT1; type: cell-based; conditions: Homo sapiens, HuCCT-1, 10 μM compound 14c, versus DMSO, read-out: inhibition of cell invasion capacity
Method: (§3) Human cholangiocarcinoma cell lines, HuCCT1, RBE, and SSP25 were purchased from the RIKEN cell line bank. They were cultured in RPMI-1640 medium supplemented with 10% (v/v) fetal bovine serum, 2 mM of L-glutamine, and penicillin/streptomycin. A BDE-Neu cell line and BDE-Neu CL24 were cultured in Dulbecco's modified Eagle's medium supplemented with 10% (v/v) fetal bovine serum, 2 mM of L-glutamine, and penicillin/streptomycin. Plasmids pLKO.1-shRNA-luciferase (shLuc) and pLKO.1-shRNA-ASPH (shASPH) were purchased from Sigma-Aldrich (St. Louis, Mo.).
(§4) The cell migration assay was performed using transwell chambers (pore size: 8 μm, Corning 3422) coated with Matrigel® (Corning 354480). The cell invasion assay was performed by using transwell chambers coated with Matrigel® (Corning 354480) as previously described. In brief, 10^5 cells in 200 μl of serum-free medium were plated in the top chamber and 600 μl of culture medium containing 10% fetal bovine serum was preparedapplied in the lower chamber to stimulate cell for migration. Cells were incubated for 24 hours, fixed with methanol, stained with 10% Giemsa solution, and counted using ImageJ software (National Institute of Health, USA). The results of invasion assay were analyzed as described in the migration assay.

[4] = test system: intrahepatic CCA tumors from BDE-Neu-CL24 cells; test: rat intrahepatic syngeneic CCA metastasis model; type: in vivo; conditions: for CCA metastatic spread to the lung (metastatic nodules): rat, 10 mg/kg oral capsule daily for 18 days, versus control capsule, p=0.041, 10 mg/kg
Method: Rats received 10 mg/kg (body weight) of the ASPH inhibitor daily for 18 days and sacrificed at day 21 post-surgery
The statistical analysis was performed using the Mann-Whitney U test. *, p<0.05 versus control.
The compound 55 (25 mg/kg) was given by i.p injection, and 10 mg/kg of compound 14c via i.p. injection 3 times per week. N=8-10 in each group.
The intrahepatic CCA metastatic models weremetastasis model was established with BDE-Neu-CL24 cells. Rats were anesthetized with isoflurane, the abdomen was opened, and the liver inoculated with 3×10^6 BDE-Neu-CL24 cells. The bile duct was then ligated following administration of 0.03 mg/kg of buprenorphine prior to surgery, and four hours after surgery, and the following morning for analgesia as needed. The rats were monitored daily and evaluated for weight change, body condition, and signs of ascites. The oral formulated compound 14c were prepared in capsules at a dose of 10 mg/kg and administered with an oral syringe. The rats were euthanized […] with Isoflurane and cervical dislocation. Tumors were dissected away from the adjacent liver and weighed. All lung tissues were immersed in Bouin's fixative solution and the metastatic nodules on the surface of the lungs were counted.
Statistical analyses of two groups were done by Student's t-test unless otherwise stated. Equality of variance was examined using F-test. Mann-Whitney U test was used to assess the significance between the two groups with respect to the numbers of metastatic nodules in the rat lung by using the software “R”.
To evaluate whether compound 14c suppresses CCA metastasis in vivo, we performed experiments in a rat intrahepatic syngeneic CCA model by ligating the bile duct and inoculating rat BDE-neu-CL24 cells into the liver. We first determined that compound 14c inhibited BDE-neu-CL24 cells in vitro (FIG. 4A). The intrahepatic rat model was established and the rats challenged with a control capsule or a capsule containing compound 14c (10 mg/kg, FIG. 4B) orally and daily for 18 days, and animals were sacrificed on day 21 (FIG. 4C). The body weights were measured as a gross indicator of drug toxicity and were not affected compared to vehicle control (FIG. 7). The metastatic spread to the lung surface was determined (FIG. 4D).

[5] = test system: BDE-neu-CL24 cells; test: cell migration assay, rat BDE-neu CL24 CCA cells; type: cell-based; conditions: 10 μM, versus DMSO
Method: as §3, §4

[6] = molecular target: T1, ASPH (Homo sapiens, UniProt Q12797); test: ASPH enzymatic (catalytic) activity; type: biochemical
T1 sequence (Q12797 1-758): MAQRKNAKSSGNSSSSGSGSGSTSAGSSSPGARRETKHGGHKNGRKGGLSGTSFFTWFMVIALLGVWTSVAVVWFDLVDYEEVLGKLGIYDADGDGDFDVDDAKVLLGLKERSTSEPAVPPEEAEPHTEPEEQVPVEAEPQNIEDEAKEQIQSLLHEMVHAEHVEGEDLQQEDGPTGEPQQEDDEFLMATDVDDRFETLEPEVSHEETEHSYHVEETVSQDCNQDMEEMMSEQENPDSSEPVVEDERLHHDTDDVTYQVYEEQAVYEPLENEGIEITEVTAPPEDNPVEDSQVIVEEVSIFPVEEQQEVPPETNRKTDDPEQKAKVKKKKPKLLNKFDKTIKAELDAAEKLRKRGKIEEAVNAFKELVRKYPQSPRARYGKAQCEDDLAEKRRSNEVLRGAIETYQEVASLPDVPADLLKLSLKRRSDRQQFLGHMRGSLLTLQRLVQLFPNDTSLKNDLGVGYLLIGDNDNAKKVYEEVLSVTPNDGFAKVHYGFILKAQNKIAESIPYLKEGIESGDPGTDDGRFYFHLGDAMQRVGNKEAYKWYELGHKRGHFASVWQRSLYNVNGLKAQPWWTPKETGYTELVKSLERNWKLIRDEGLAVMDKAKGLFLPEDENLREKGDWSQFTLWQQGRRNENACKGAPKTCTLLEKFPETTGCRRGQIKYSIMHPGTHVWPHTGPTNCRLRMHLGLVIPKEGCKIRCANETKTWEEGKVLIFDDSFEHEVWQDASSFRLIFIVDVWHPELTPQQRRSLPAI
Text: FIGS. 5A-5B show a scheme for measuring ASPH catalytic activity.

[7] = test system: HuCCT1 CCA cells; test: 24-hour transwell cell migration assay, HuCCT1; type: cell-based, human; conditions: 10 μM compound 14c, versus DMSO
Method: (§5) We used 5×10^4 HuCCT1 and 1×10^5 RBE cells in the migration assay.
as §3, §4

[8] = test system: RBE CCA cells; test: 24-hour transwell cell migration assay, RBE; type: cell-based, human
Method: as §5, §3, §4

[9] = test system: RBE CCA cells; test: cell invasion assay, matrix-coated Boyden chamber transwell, RBE; type: cell-based; conditions: Homo sapiens, 10 μM compound 14c, versus DMSO, read-out: inhibition of cell invasion capacity
Method: as §3, §4

[10] = test system: MMP2; test: immunohistochemistry of primary intrahepatic tumor, MMP2; type: in vivo; conditions: rat, 10 mg/kg oral daily
Method: as §1, §2

[11] = water solubility; type: physicochemical
[12] = listed as third generation ASPH inhibitor

inhibitory effects on ASPH (enzymatic) activity compared to previous generations of ASPH SMIs [6]	inhibitory effects on ASPH (enzymatic) activity compared to previous generations of ASPH SMIs [6, 12]	water solubility compared to previous generations of ASPH SMIs [11]	water solubility compared to previous generations of ASPH SMIs [11, 12]	SMILES	MMP14 protein expression in primary intrahepatic tumor [1]	body weights compared to vehicle control [2]	inhibition at 10 µM [3] [%]	effects on CCA progression as compared to compound 55 (FIG. 6A, weight of CCA tumors) ([4]; rat CCA model, compound 14c 10 mg/kg i.p. 3 times per week versus compound 55 25 mg/kg i.p.)	CCA metastatic spread to the lung (metastatic nodules) [4]	CCA metastatic spread to the lung (metastatic nodules) [4, 12]	inhibition of BDE-neu-CL24 cells in vitro (cell migration, FIG. 4A) [5]	reduction of cell migration [7] [%]	reduction of cell migration ([8]; 10 μM compound 14c, 24-hour transwell, versus DMSO) [%]	reduction of RBE CCA cell migration ([8]; comparison of ASPH inhibitor generations, concentration not stated)	inhibition at 10 µM [9] [%]	MMP2 protein expression in primary intrahepatic tumor [10]	anti-tumor effects on metastatic spread to the lung ([4]; rat model, 25 mg/kg, daily)	anti-tumor effects on primary tumor growth ([4]; rat model, 25 mg/kg, daily)
improved	increased potency	improved water solubility	more water soluble	COC(=O)c1ccc(C2OC(N)=C(OS(=O)(=O)Cc3ccccc3)C2=O)cc1 (stereo not drawn) [compound 14c]	significantly down-regulated	not affected; also recorded: no difference	60	improved effects	substantially decreased	suppressed	inhibited	50	70	approximately 70%	83	significantly down-regulated		
				NC1=C(OS(=O)(=O)Cc2ccccc2)C(=O)C(c2ccc(C(F)(F)F)cc2)O1 (stereo not drawn) [compound 55, 2-(4-trifluoromethylphenyl)-4-[[phenylmethylsulfonyl]oxy]-5-amino-3(2H)-furanone]													did not achieve satisfactory anti-tumor effects	did not achieve satisfactory anti-tumor effects
